Active and inactive are the calls of the source. No rule for the calls is given here.

The text below walks through data of PubChem BioAssay AID1745844 (Carcinogenic Potency Database (CPDB), 2022).

This series concerns rodent lifetime carcinogenesis bioassay, tumor incidence TD50. Nature of the series: chronic cancer bioassays in animals – CPDB, compiled studies (AID 1745844).

Regarding `Nc1ccc(/C=C/c2ccc(N)c(S(=O)(=O)O)c2)c(S(=O)(=O)O)c1`, the carcinogen call (mouse, strain B6C3F1, females, in feed, site: any site (literature study), lesion: several types, types named in the paper, dosed 103 weeks, study length 104 weeks) is “negative (inactive)”. Moreover, the TD50 (commonly the 50% point of the dose-response relation for the toxic effect studied) was 12900 mg/kg/day (mouse, strain B6C3F1, males, in feed, site: any site (literature study), lesion: several types, types named in the paper, dosed 103 weeks, study length 104 weeks); 9720 mg/kg/day (mouse, strain B6C3F1, males, in feed, site: liver, lesion: hepatocellular adenoma + hepatocellular carcinoma + neoplastic nodule, dosed 103 weeks, study length 104 weeks); 2570 mg/kg/day (inactive) (mouse, strain B6C3F1, males, in feed, site: liver, lesion: hepatocellular adenoma, dosed 103 weeks, study length 104 weeks); 17600 mg/kg/day (inactive) (rat, strain Fischer 344, females, in feed, site: any site (literature study), lesion: several types, types named in the paper, dosed 103 weeks, study length 104 weeks); 5810 mg/kg/day (inactive) (rat, strain Fischer 344, males, in feed, site: any site (literature study), lesion: several types, types named in the paper, dosed 103 weeks, study length 104 weeks); 5020 mg/kg/day (rat, strain Fischer 344, males, in feed, site: liver, lesion: hepatocellular adenoma + hepatocellular carcinoma + neoplastic nodule, dosed 103 weeks, study length 104 weeks).

For the molecule `CNC(=O)c1c(N(C)N=O)ncn1C`, the TD50 was 1.03 mg/kg/day (rat, strain BD IX, both sexes, in drinking water, site: nasal cavity, olfactory epithelium, lesion: neuroepithelioma, dosed 73 weeks, study length 79 weeks); 1 mg/kg/day (rat, strain BD IX, both sexes, in drinking water, site: nasal cavity, lesion: several types, types named in the paper, dosed 73 weeks, study length 79 weeks); 5.56 mg/kg/day (rat, strain BD IX, both sexes, in drinking water, site: nasal cavity, lesion: squamous-cell carcinoma, dosed 73 weeks, study length 79 weeks).

As to `O=P(=O)O`, the TD50 (rat, strain F344/DuCrj, females, in feed, site: any site (literature study), lesion: several types, types named in the paper, dosed 108 weeks, study length 108 weeks) was 5100 mg/kg/day (inactive). Also, the carcinogen call is, setting by setting: (rat, strain F344/DuCrj, females, in feed, site: liver, lesion: one or several types, types not named, dosed 108 weeks, study length 108 weeks) “negative (inactive)”; (rat, strain F344/DuCrj, males, in feed, site: any site (literature study), lesion: several types, types named in the paper, dosed 108 weeks, study length 108 weeks) “negative (inactive)”; (rat, strain F344/DuCrj, males, in feed, site: liver, lesion: one or several types, types not named, dosed 108 weeks, study length 108 weeks) “negative (inactive)”.

On to `CCCN(N=O)/C(N)=N/[N+](=O)[O-]`, for which the TD50 runs as follows: (rat, strain Wistar, males, in drinking water, site: stomach, glandular, lesion: adenocarcinoma, dosed 52 weeks, study length 65 weeks) 2.85 mg/kg/day; (rat, strain Wistar, males, in drinking water, site: stomach, glandular, lesion: adenocarcinoma, dosed 52 weeks, study length 78 weeks) 2.27 mg/kg/day; (rat, strain Wistar, males, in drinking water, site: stomach, glandular, lesion: adenoma, dosed 34 weeks, study length 65 weeks) 1.9 mg/kg/day; (rat, strain Wistar, males, in drinking water, site: stomach, glandular, lesion: adenoma, dosed 52 weeks, study length 65 weeks) 0.919 mg/kg/day; (rat, strain Wistar, males, in drinking water, site: stomach, glandular, lesion: adenoma, dosed 52 weeks, study length 78 weeks) 2.27 mg/kg/day.

Turning to `N`, the carcinogen call by setting is: (mouse, strain C3H (MTV+), females, in drinking water, site: mammary gland, lesion: adenocarcinoma, dosed 104 weeks, study length 104 weeks) “negative (inactive)”; (mouse, strain Swiss, females, in drinking water, site: lung, lesion: several types, types named in the paper, dosed 119 weeks, study length 121 weeks) “negative (inactive)”. Moreover, the TD50 is, setting by setting: (mouse, strain Swiss, males, in drinking water, site: liver, lesion: several types, types named in the paper, dosed 120 weeks, study length 124 weeks) 26700 mg/kg/day; (mouse, strain Swiss, males, in drinking water, site: lung, lesion: adenocarcinoma, dosed 120 weeks, study length 124 weeks) 7330 mg/kg/day (inactive); (mouse, strain Swiss, males, in drinking water, site: lung, lesion: several types, types named in the paper, dosed 120 weeks, study length 124 weeks) 15300 mg/kg/day (inactive).

On to `CCOc1ccc2c(c1)C(C)=CC(C)(C)N2`, for which the carcinogen call (rat, strain F344/DuCrj, males, in feed, site: esophagus, lesion: one or several types, types not named, dosed 52 weeks, study length 52 weeks) is “negative (inactive)”; the carcinogen call (rat, strain F344/DuCrj, males, in feed, site: forestomach, lesion: one or several types, types not named, dosed 52 weeks, study length 52 weeks) is “negative (inactive)”; the carcinogen call (rat, strain F344/DuCrj, males, in feed, site: liver, lesion: one or several types, types not named, dosed 52 weeks, study length 52 weeks) was “negative (inactive)”; the carcinogen call (rat, strain Fischer 344, females, in feed, site: kidney, lesion: one or several types, types not named, dosed 58 weeks, study length 58 weeks) is “negative (inactive)”; the carcinogen call (rat, strain Fischer 344, females, in feed, site: kidney, lesion: one or several types, types not named, dosed 78 weeks, study length 78 weeks) is “negative (inactive)”; the carcinogen call (rat, strain Fischer 344, males, in feed, site: kidney, lesion: one or several types, types not named, dosed 58 weeks, study length 58 weeks) is “negative (inactive)”. For the same molecule, for the setting “rat, strain Fischer 344, males, in feed, site: kidney, lesion: one or several types, types not named, dosed 78 weeks, study length 78 weeks”, the carcinogen call was “negative (inactive)”.

As to `CCCCCCCCCCN(C)N=O`, the carcinogen call (rat, strain Fischer 344, males, by gavage, site: any site (literature study), lesion: several types, types named in the paper, dosed 30 weeks, study length 102 weeks) is “positive”. Moreover, the TD50 (rat, strain Fischer 344, males, by gavage, site: forestomach, lesion: carcinoma, dosed 30 weeks, study length 102 weeks) was 46.6 mg/kg/day; the TD50 (rat, strain Fischer 344, males, by gavage, site: forestomach, lesion: papilloma, dosed 30 weeks, study length 102 weeks) is 46.6 mg/kg/day; the TD50 (rat, strain Fischer 344, males, by gavage, site: liver, lesion: hepatocellular carcinoma, dosed 30 weeks, study length 102 weeks) is 22.7 mg/kg/day; the TD50 (rat, strain Fischer 344, males, by gavage, site: lung, lesion: adenocarcinoma, dosed 30 weeks, study length 102 weeks) is 8.32 mg/kg/day; the TD50 (rat, strain Fischer 344, males, by gavage, site: lung, lesion: adenoma, dosed 30 weeks, study length 102 weeks) is 14.7 mg/kg/day; the TD50 (rat, strain Fischer 344, males, by gavage, site: nasal cavity, lesion: several types, types named in the paper, dosed 30 weeks, study length 102 weeks) is 46.6 mg/kg/day. Further, for the setting “rat, strain Fischer 344, males, by gavage, site: urinary bladder, lesion: transitional-cell carcinoma, dosed 30 weeks, study length 102 weeks”, the TD50 was 1.26 mg/kg/day.

With `C=CC(O)c1ccc(OC)cc1` (stereo not given), under “mouse, strain Charles River CD1, females, in feed, site: liver, lesion: hepatoma, dosed 51 weeks, study length 86 weeks”, the TD50 is 57.8 mg/kg/day.
